Measurements published in patent US8852554B2, “Radiolabelled PDE10 ligands” (Janssen Pharmaceutica NV, priority 2009, dated 2014).
Structures can show the parent of a compound that is named as a salt.

Molecular target: T1, Rat recombinant PDE10A (rPDE10A) (Rattus norvegicus, UniProt Q9QYJ6)
T1 construct: made in house; host or cells: Sf9 insect cells (baculovirus)
T1 sequence (Q9QYJ6 1-794): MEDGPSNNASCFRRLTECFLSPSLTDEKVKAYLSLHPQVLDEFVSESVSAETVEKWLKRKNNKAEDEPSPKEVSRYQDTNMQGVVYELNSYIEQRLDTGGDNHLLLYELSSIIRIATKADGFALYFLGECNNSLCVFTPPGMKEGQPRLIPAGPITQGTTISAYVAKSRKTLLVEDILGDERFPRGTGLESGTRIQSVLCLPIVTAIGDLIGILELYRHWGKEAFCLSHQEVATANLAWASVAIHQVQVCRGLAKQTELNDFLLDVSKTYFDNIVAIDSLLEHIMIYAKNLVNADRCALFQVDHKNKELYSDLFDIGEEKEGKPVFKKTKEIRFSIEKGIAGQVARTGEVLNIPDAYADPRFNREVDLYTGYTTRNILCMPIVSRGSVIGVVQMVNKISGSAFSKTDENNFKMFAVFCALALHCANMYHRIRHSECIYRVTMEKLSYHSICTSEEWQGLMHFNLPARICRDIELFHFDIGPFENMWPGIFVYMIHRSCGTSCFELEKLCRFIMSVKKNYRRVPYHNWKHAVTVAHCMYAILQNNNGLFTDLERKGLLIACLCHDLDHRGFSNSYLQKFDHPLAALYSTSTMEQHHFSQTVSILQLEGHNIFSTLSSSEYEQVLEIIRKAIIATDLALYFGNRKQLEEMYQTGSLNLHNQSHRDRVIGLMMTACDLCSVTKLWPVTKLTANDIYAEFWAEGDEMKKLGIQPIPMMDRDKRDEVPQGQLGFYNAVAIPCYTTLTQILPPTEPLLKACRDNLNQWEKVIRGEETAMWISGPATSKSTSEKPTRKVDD
Test: rat PDE10A2-cAMP inhibition, in vitro SPA assay
Assay type: biochemical
Conditions: 60 nM cAMP substrate
Procedure: Rat recombinant PDE10A (rPDE10A) was expressed in Sf9 cells using a recombinant rPDE10A baculovirus construct. Cells were harvested after 48 h of infection and the rPDE10A protein was purified by metal chelate chromatography on Ni-sepharose 6FF. Tested compounds were dissolved and diluted in 100% DMSO to a concentration 100 fold of the final concentration in the assay. Compound dilutions (0.4 μl) were added in 384 well plates to 20 μl of incubation buffer (50 mM Tris pH 7.8, 8.3 mM MgCl2, 1.7 mM EGTA). 10 μl of rPDE10A enzyme in incubation buffer was added and the reaction was started by addition of 10 μl substrate to a final concentration of 60 nM cAMP and 0.008 μCi 3H-cAMP. The reaction was incubated for 60 minutes at room temperature. […] After sedimentation of the beads during 30 minutes, the radioactivity was measured in a Perkin Elmer Topcount scintillation counter and results were expressed as cpm. For blanc values the enzyme was omitted from the reaction and replaced by incubation buffer. Control values were obtained by addition of a final concentration of 1% DMSO instead of compound.

For `Cc1cccc(COc2ccc(-c3nn(CCF)cc3-c3ccncc3)cc2)n1` [Compound B1, 2-[[4-[1-(2-fluoroethyl)-4-(4-pyridinyl)-1H-pyrazol-3-yl]phenoxy]methyl]-6-methyl-pyridine.dihydrochloride], which pIC50 is on record?
Its pIC50 is 8.6.

With `Cc1cccc(COc2ccc(-c3nn(CCCF)cc3-c3ccncc3)cc2)n1` [Compound B2, 2-[[4-[1-(3-fluoropropyl)-4-(4-pyridinyl)-1H-pyrazol-3-yl]phenoxy]methyl]-6-methyl-pyridine.hydrochloride] as the compound, how does the pIC50 read?
The pIC50 was 7.7.

With `Cc1cnc(COc2ccc(-c3nn(CCF)cc3-c3ccncc3)cc2)c(C)c1` [Compound B3, 2-[[4-[1-(2-fluoroethyl)-4-(4-pyridinyl)-1H-pyrazol-3-yl]phenoxy]methyl]-3,5-dimethyl-pyridine.succinate] as the compound, how does the IC50 read?
Its IC50 is 1.62 nM.

Which IC50 does the source give for `FCCn1cc(-c2ccncc2)c(-c2ccc(OCc3cccc(Br)n3)cc2)n1` [Compound B6, 2-bromo-6-[[4-[1-(2-fluoroethyl)-4-(4-pyridinyl)-1H-pyrazol-3-yl]phenoxy]methyl]-pyridine.0.75 succinate] here?
The IC50 was 9.77 nM.

Which IC50 does the source give for `FCCn1cc(-c2ccncc2)c(-c2ccc(OCc3cccc(C(F)(F)F)n3)cc2)n1` [Compound B7, 2-[[4-[1-(2-fluoroethyl)-4-(4-pyridinyl)-1H-pyrazol-3-yl]phenoxy]methyl]-6-(trifluoromethyl)-pyridine] here?
The IC50 was 110 nM.

Which IC50 does the source give for `FCCn1cc(-c2ccncc2)c(-c2ccc(OCc3cccc(C4CC4)n3)cc2)n1` [Compound B8, 2-Cyclopropyl-6-[[4-[1-(2-fluoroethyl)-4-(4-pyridinyl)-1H-pyrazol-3-yl]phenoxy]methyl]-pyridine.succinate] here?
The IC50 was 33.1 nM.

For `FCCOc1cccnc1COc1ccc(-c2nn(CC(F)(F)F)cc2-c2ccncc2)cc1` [Compound B10, 3-(2-fluoroethoxy)-2-[[4-[4-(4-pyridinyl)-1-(2,2,2-trifluoroethyl)-1H-pyrazol-3-yl]phenoxy]methyl]-pyridine.succinate], which IC50 is on record?
Its IC50 is 6.31 nM.

With `FCCOc1ccc(COc2ccc(-c3nn(CC(F)(F)F)cc3-c3ccncc3)cc2)nc1` [Compound B11, 5-(2-fluoroethoxy)-2-[[4-[4-(4-pyridinyl)-1-(2,2,2-trifluoroethyl)-1H-pyrazol-3-yl]phenoxy]methyl]-pyridine] as the compound, how does the IC50 read?
Its IC50 is 107 nM.

Which IC50 does the source give for `FCCCn1cc(-c2ccncc2)c(-c2ccc(OCc3ncccc3OCCF)cc2)n1` [Compound B13, 3-(2-fluoroethoxy)-2-[[4-[1-(3-fluoropropyl)-4-(4-pyridinyl)-1H-pyrazol-3-yl]phenoxy]methyl]pyridine.succinate] here?
Its IC50 is 13.8 nM.

Which IC50 does the source give for `COc1ccc(COc2ccc(-c3nn(CCCF)cc3-c3ccncc3)cc2)nc1` [Compound B14, 2-[[4-[1-(3-fluoropropyl)-4-(4-pyridinyl)-1H-pyrazol-3-yl]phenoxy]methyl]-5-methoxy-pyridine.0.5 succinate] here?
The IC50 was 14.5 nM.

With `COc1cccnc1COc1ccc(-c2nn(CCF)cc2-c2ccncc2)cc1` [Compound B16, 2-[[4-[1-(2-fluoroethyl)-4-(4-pyridinyl)-1H-pyrazol-3-yl]phenoxy]methyl]-3-methoxy-pyridine.succinate] as the compound, how does the IC50 read?
Its IC50 is 3.72 nM.

For `FCCOc1cccnc1COc1ccc(-c2nn(CCF)cc2-c2ccncc2)cc1` [Compound B17, 3-(2-fluoroethoxy)-2-[[4-[1-(2-fluoroethyl)-4-(4-pyridinyl)-1H-pyrazol-3-yl]phenoxy]methyl]pyridine.succinate], which IC50 is on record?
Its IC50 is 3.8 nM.

For `FCCn1cc(-c2ccncc2)c(-c2ccc(OCc3ncccc3F)cc2)n1` [Compound B18, 3-fluoro-2-[[4-[1-(2-fluoroethyl)-4-(4-pyridinyl)-1H-pyrazol-3-yl]phenoxy]methyl]-pyridine.1.2 succinate], which IC50 is on record?
The IC50 was 16.2 nM.

For `N#Cc1ccc(COc2ccc(-c3nn(CCF)cc3-c3ccncc3)cc2)nc1` [Compound B21, 6-[[4-[1-(2-fluoroethyl)-4-(4-pyridinyl)-1H-pyrazol-3-yl]phenoxy]methyl]-3-pyridinecarbonitrile], which pIC50 is on record?
The pIC50 was 7.1.

Which IC50 does the source give for `FCCn1cc(-c2ccncc2)c(-c2ccc(OCc3ccc(C4CC4)cn3)cc2)n1` [Compound B23, 5-cyclopropyl-2-[[4-[1-(2-fluoroethyl)-4-(4-pyridinyl)-1H-pyrazol-3-yl]phenoxy]methyl]-pyridine] here?
The IC50 was 34.7 nM.

With `COc1cccc(COc2ccc(-c3nn(CCF)cc3-c3ccncc3)cc2)n1` [Compound B24, 2-[[4-[1-(2-fluoroethyl)-4-(4-pyridinyl)-1H-pyrazol-3-yl]phenoxy]methyl]-6-methoxy-pyridine.succinate] as the compound, how does the IC50 read?
Its IC50 is 2.95 nM.

With `CCOc1cccc(COc2ccc(-c3nn(CCF)cc3-c3ccncc3)cc2)n1` [Compound B25, 2-ethoxy-6-[[4-[1-(2-fluoroethyl)-4-(4-pyridinyl)-1H-pyrazol-3-yl]phenoxy]methyl]-pyridine.succinate] as the compound, how does the IC50 read?
Its IC50 is 20.9 nM.

Which IC50 does the source give for `Cc1cnc(COc2ccc(-c3nn(CCF)cc3-c3ccncc3)cc2)c(C)c1C` [Compound B28, 2-[[4-[1-(2-fluoroethyl)-4-(4-pyridinyl)-1H-pyrazol-3-yl]phenoxy]methyl]-3,4,5-trimethyl-pyridine.succinate] here?
Its IC50 is 4.37 nM.

System: not given
Test: not given
Conditions: not given

For `Cc1cccc(COc2ccc(-c3nn(CCF)cc3-c3ccncc3)cc2)n1` (as salt: hydrochloride) [Compound B1, 2-[[4-[1-(2-fluoroethyl)-4-(4-pyridinyl)-1H-pyrazol-3-yl]phenoxy]methyl]-6-methyl-pyridine.dihydrochloride], which melting point is on record?
Its melting point is 227.22 °C.

For `Cc1cccc(COc2ccc(-c3nn(CCCF)cc3-c3ccncc3)cc2)n1` (as salt: hydrochloride) [Compound B2, 2-[[4-[1-(3-fluoropropyl)-4-(4-pyridinyl)-1H-pyrazol-3-yl]phenoxy]methyl]-6-methyl-pyridine.hydrochloride], which melting point is on record?
The melting point was 106.51 °C.

Which melting point does the source give for `FCCn1cc(-c2ccncc2)c(-c2ccc(OCc3cccc(Br)n3)cc2)n1` (as salt: succinate) [Compound B6, 2-bromo-6-[[4-[1-(2-fluoroethyl)-4-(4-pyridinyl)-1H-pyrazol-3-yl]phenoxy]methyl]-pyridine.0.75 succinate] here?
The melting point was 108.78 °C.

Which melting point does the source give for `FCCn1cc(-c2ccncc2)c(-c2ccc(OCc3cccc(C4CC4)n3)cc2)n1` (as salt: succinate) [Compound B8, 2-Cyclopropyl-6-[[4-[1-(2-fluoroethyl)-4-(4-pyridinyl)-1H-pyrazol-3-yl]phenoxy]methyl]-pyridine.succinate] here?
The melting point was 91.25 °C.

With `FCCOc1cccnc1COc1ccc(-c2nn(CC(F)(F)F)cc2-c2ccncc2)cc1` (as salt: succinate) [Compound B10, 3-(2-fluoroethoxy)-2-[[4-[4-(4-pyridinyl)-1-(2,2,2-trifluoroethyl)-1H-pyrazol-3-yl]phenoxy]methyl]-pyridine.succinate] as the compound, how does the melting point read?
The melting point was 140.72 °C.

With `FCCCn1cc(-c2ccncc2)c(-c2ccc(OCc3ncccc3OCCF)cc2)n1` (as salt: succinate) [Compound B13, 3-(2-fluoroethoxy)-2-[[4-[1-(3-fluoropropyl)-4-(4-pyridinyl)-1H-pyrazol-3-yl]phenoxy]methyl]pyridine.succinate] as the compound, how does the melting point read?
The melting point was 118.38 °C.

Which melting point does the source give for `COc1ccc(COc2ccc(-c3nn(CCCF)cc3-c3ccncc3)cc2)nc1` (as salt: succinate) [Compound B14, 2-[[4-[1-(3-fluoropropyl)-4-(4-pyridinyl)-1H-pyrazol-3-yl]phenoxy]methyl]-5-methoxy-pyridine.0.5 succinate] here?
The melting point was 126.64 °C.

For `COc1cccnc1COc1ccc(-c2nn(CCF)cc2-c2ccncc2)cc1` (as salt: succinate) [Compound B16, 2-[[4-[1-(2-fluoroethyl)-4-(4-pyridinyl)-1H-pyrazol-3-yl]phenoxy]methyl]-3-methoxy-pyridine.succinate], which melting point is on record?
The melting point was 178.95 °C.

With `FCCOc1cccnc1COc1ccc(-c2nn(CCF)cc2-c2ccncc2)cc1` (as salt: succinate) [Compound B17, 3-(2-fluoroethoxy)-2-[[4-[1-(2-fluoroethyl)-4-(4-pyridinyl)-1H-pyrazol-3-yl]phenoxy]methyl]pyridine.succinate] as the compound, how does the melting point read?
The melting point was 114.18 °C.
